Results on 26 compounds are retold here after patent US11976075B2, “Inhibitors of the MYST family of lysine acetyl transferases” (Isosterix, Inc., priority 2022, dated 2024).

In this experiment the target is T1, Recombinant KAT6A/MOZ (488-778) protein (Homo sapiens, UniProt Q92794).
T1 construct: Recombinant KAT6A/MOZ (488-778) protein (Active motif, Catalog #81223); purchased Active Motif 81223
Nature of the experiment: Kat6a AlphaLISA Inhibition Screening Assay. Type of experiment: biochemical. The method, then:
The Kat6a inhibitory activity of test compounds was determined using an Alpha Screen-based detection method. The assay reactions were conducted in a volume of 10 μL in Alpha Plate, White 384 well plate (cat #6008280, Perkin Elmer). The enzymatic reactions were performed in assay buffer pH 8.0 (50 mM Tris-HCl, 0.1 mM EDTA, 0.01% Tween-20, 1 mM Dithiothreitol, 0.1% BSA (fatty acid free) and 330 nM TSA (Trichostatin A)). 10 μL reaction volume consisting of 25 nM of Recombinant KAT6A/MOZ (488-778) protein (Active motif, Catalog #81223), 400 nM Acetyl coenzyme A (Catalog #A2056, Sigma), 200 nM of Histone H3 peptide [(amino acids 1-21), biotin-labeled (BPS Biosciences, Catalog #52011,)] and a 10-point dose response curve for test/tool compounds were prepared. Enzyme and compounds solution were pre-incubated in assay plate for 60 or 10 min at room temperature then substrate and Acetyl coenzyme A solution were added to the plate. After addition, the plate was sealed with adhesive seals and incubated for 120 minutes at room temperature.
After 120 minutes of incubation, 5 μL (10 μg/mL) of AlphaLISA anti-acetyl-Lysine acceptor beads (Perkin Elmer, Catalog #AL143C) were added to the plate and it was incubated for 60 minutes at room temperature. Then 10 μL (10 μg/mL) of Alpha Streptavidin donor beads (Perkin Elmer, Catalog #6760002S) were added to the plate which was further incubated for 60 minutes at room temperature. After incubation, the alpha signal was recorded by using Perkin Elmer Envision multi-mode reader.
NA means the compound was not active at the concentration tested. […] NT means not tested.

Setting [1] is: 60′ pre-incubation, Table 3, read-out: Kat6A Biochemical assay: IC50.
The mark [2] stands for this setting: 60′ pre-incubation, Table 2, read-out: Kat6A biochemical assay: IC50.
[3] abbreviates: 10′ pre-incubation, Table 2, read-out: Kat6A biochemical assay: IC50.

SMILES strings stand for the structures. Where two headings read alike, the source gives them in different places.

T1 sequence (Q92794 488-778): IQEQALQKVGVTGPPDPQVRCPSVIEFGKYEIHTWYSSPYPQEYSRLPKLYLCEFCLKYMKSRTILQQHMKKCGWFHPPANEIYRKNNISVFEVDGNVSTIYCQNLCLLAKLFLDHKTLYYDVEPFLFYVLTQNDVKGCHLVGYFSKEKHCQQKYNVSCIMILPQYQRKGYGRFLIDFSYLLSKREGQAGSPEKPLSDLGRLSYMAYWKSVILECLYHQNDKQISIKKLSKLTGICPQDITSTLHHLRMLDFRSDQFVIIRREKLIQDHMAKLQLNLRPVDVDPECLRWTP

On to `C#CC(=O)N1CCc2c(cnn2Cc2cc(OC)c3c(NS(=O)(=O)c4cc(CC)ccc4OC)noc3c2)C1` [105a, 5-ethyl-2-methoxy-N-(4-methoxy-6-((5-propioloyl-4,5,6,7-tetrahydro-1H-pyrazolo[4,3-c]pyridin-1-yl)methyl)benzo[d]isoxazol-3-yl)benzenesulfonamide], for which, under setting [1], the IC50 was not above 10 µM. The same measure, in the same setting: under `C#CC(=O)N1CCc2nn(Cc3cc(OC)c4c(NS(=O)(=O)c5cc(CC)ccc5OC)noc4c3)cc2C1` [105b, 5-ethyl-2-methoxy-N-(4-methoxy-6-((5-propioloyl-4,5,6,7-tetrahydro-2H-pyrazolo[4,3-c]pyridin-2-yl)methyl)benzo[d]isoxazol-3-yl)benzenesulfonamide] stands not above 10 µM.

For `COc1cc(Cn2cc3c(n2)CN(C(=O)C#CCN(C)C)C3)cc2onc(NS(=O)(=O)CC3CCCCC3)c12` [Synthetic Example 3, 1-cyclohexyl-N-(6-((5-(4-(dimethylamino)but-2-ynoyl)-5,6-dihydropyrrolo[3,4-c]pyrazol-2(4H)-yl)methyl)-4-methoxybenzo[d]isoxazol-3-yl)methanesulfonamide], under setting [2], the half-inhibitory concentration (IC50) is not above 10 µM. For the compound `C=CC(=O)NCc1cnn(Cc2cc(OC)c3c(NS(=O)(=O)CC4CCCCC4)noc3c2)c1` [Synthetic Example 4, N-((1-((3-((cyclohexylmethyl)sulfonamido)-4-methoxybenzo[d]isoxazol-6-yl)methyl)-1H-pyrazol-4-yl)methyl)acrylamide], the IC50 under setting [2] was not above 10 µM. For `C#CC(=O)NCc1ccn(Cc2cc(OC)c3c(NS(=O)(=O)CC4CCCCC4)noc3c2)n1` [Synthetic Example 8, N-((1-((3-((cyclohexylmethyl)sulfonamido)-4-methoxybenzo[d]isoxazol-6-yl)methyl)-1H-pyrazol-3-yl)methyl)propiolamide], the IC50 under setting [3] was not above 10 µM. The same measure, in the same setting: for `CCC(=O)NCc1ccn(Cc2cc(OC)c3c(NS(=O)(=O)CC4CCCCC4)noc3c2)n1` [Synthetic Example 9, N-((1-((3-((cyclohexylmethyl)sulfonamido)-4-methoxybenzo[d]isoxazol-6-yl)methyl)-1H-pyrazol-3-yl)methyl)propionamide] the value was not above 10 µM. Take `C=CC(=O)NCc1ccc2cc(C(=O)NS(=O)(=O)c3ccccc3F)oc2c1` [Synthetic Example 10, 6-(acrylamidomethyl)-N-((2-fluorophenyl)sulfonyl)benzofuran-2-carboxamide]: the IC50 under setting [3] is not above 10 µM. Same read-out and setting: for `C#CC(=O)NCc1ccc2cc(C(=O)NS(=O)(=O)c3ccccc3F)oc2c1` [Synthetic Example 11, N-((2-fluorophenyl)sulfonyl)-6-(propiolamidomethyl)benzofuran-2-carboxamide] the value was 20 to 50 µM; for `C=CC(=O)N1CCC(C(=O)NCc2ccc3cc(C(=O)NS(=O)(=O)c4ccccc4F)oc3c2)CC1` [Synthetic Example 14, 1-acryloyl-N-((2-(((2-fluorophenyl)sulfonyl)carbamoyl)benzofuran-6-yl)methyl)piperidine-4-carboxamide], 20 to 50 µM.

As for `C=CC(=O)NCc1ccnc(-c2cc(C)cc(C(=O)NNS(=O)(=O)c3c(OC)cccc3OC)c2)c1` [Synthetic Example 15, N-((2-(3-(2-((2,6-dimethoxyphenyl)sulfonyl)hydrazine-1-carbonyl)-5-methylphenyl)pyridin-4-yl)methyl)acrylamide], the IC50 under setting [2] was not above 10 µM. In the case of `C#CC(=O)NCc1ccnc(-c2cc(C)cc(C(=O)NNS(=O)(=O)c3c(OC)cccc3OC)c2)c1` [Synthetic Example 16, N-((2-(3-(2-((2,6-dimethoxyphenyl)sulfonyl)hydrazine-1-carbonyl)-5-methylphenyl)pyridin-4-yl)methyl)propiolamide], the concentration for half-maximal inhibition (IC50) under setting [2] is not above 10 µM. With `C=CS(=O)(=O)NCc1ccn(Cc2cc(OC)c3c(NS(=O)(=O)c4ccccc4F)noc3c2)n1` [Synthetic Example 17, 2-fluoro-N-(4-methoxy-6-((3-(vinylsulfonamidomethyl)-1H-pyrazol-1-yl)methyl)benzo[d]isoxazol-3-yl)benzenesulfonamide], the IC50 under setting [2] is not above 10 µM. The same measure, in the same setting: for `C=CC(=O)NCc1ccn(Cc2cc(OC)c3c(NS(=O)(=O)c4ccccc4F)noc3c2)n1` [Synthetic Example 18, N-((1-((3-((2-fluorophenyl)sulfonamido)-4-methoxybenzo[d]isoxazol-6-yl)methyl)-1H-pyrazol-3-yl)methyl)acrylamide] the value was not above 10 µM; for `C=CS(=O)(=O)NCc1ccn(Cc2cc(OC)c3c(NS(=O)(=O)c4c(OC)cccc4OC)noc3c2)n1` [Synthetic Example 19, 2,6-dimethoxy-N-(4-methoxy-6-((3-(vinylsulfonamidomethyl)-1H-pyrazol-1-yl)methyl)benzo[d]isoxazol-3-yl)benzenesulfonamide], not above 10 µM; for `C=CS(=O)(=O)NCc1ccn(Cc2cc(OC)c3c(NS(=O)(=O)c4ccccc4OC)noc3c2)n1` [Synthetic Example 22, 2-methoxy-N-(4-methoxy-6-((3-(vinylsulfonamidomethyl)-1H-pyrazol-1-yl)methyl)benzo[d]isoxazol-3-yl)benzenesulfonamide], not above 10 µM. On the same count and under the same terms, under `C=C(F)C(=O)NCc1ccn(Cc2cc(OC)c3c(NS(=O)(=O)CC4CCCCC4)noc3c2)n1` [Synthetic Example 23, N-((1-((3-((cyclohexylmethyl)sulfonamido)-4-methoxybenzo[d]isoxazol-6-yl)methyl)-1H-pyrazol-3-yl)methyl)-2-fluoroacrylamide] stands not above 10 µM; under `C=CS(=O)(=O)NCc1ccn(Cc2cc(OC)c3c(NS(=O)(=O)CC4CCCCC4)noc3c2)n1` [Synthetic Example 24, N-((1-((3-((cyclohexylmethyl)sulfonamido)-4-methoxybenzo[d]isoxazol-6-yl)methyl)-1H-pyrazol-3-yl)methyl)ethenesulfonamide], not above 10 µM. For the compound `C=CS(=O)(=O)N1Cc2cnn(Cc3cc(OC)c4c(NS(=O)(=O)c5ccccc5OC)noc4c3)c2C1` [Synthetic Example 27A, 2-methoxy-N-(4-methoxy-6-((5-(vinylsulfonyl)-5,6-dihydropyrrolo[3,4-c]pyrazol-1(4H)-yl)methyl)benzo[d]isoxazol-3-yl)benzenesulfonamide], under setting [2], the IC50 was not above 10 µM. `COc1cc(Cn2ncc3c2CNC3)cc2onc(NS(=O)(=O)CC3CCCCC3)c12` [Synthetic Example 28A, 1-cyclohexyl-N-(6-((5,6-dihydropyrrolo[3,4-c]pyrazol-1(4H)-yl)methyl)-4-methoxybenzo[d]isoxazol-3-yl)methanesulfonamide]: the IC50 under setting [2] was not above 10 µM. Same read-out and setting: for `COc1cc(Cn2cc3c(n2)CNC3)cc2onc(NS(=O)(=O)CC3CCCCC3)c12` [Synthetic Example 28B, 1-cyclohexyl-N-(6-((5,6-dihydropyrrolo[3,4-c]pyrazol-2(4H)-yl)methyl)-4-methoxybenzo[d]isoxazol-3-yl)methanesulfonamide] the value was 10 to 20 µM; for `C=CC(=O)N1Cc2cnn(Cc3cc(OC)c4c(NS(=O)(=O)CC5CCCCC5)noc4c3)c2C1` [Synthetic Example 29A, N-(6-((5-acryloyl-5,6-dihydropyrrolo[3,4-c]pyrazol-1(4H)-yl)methyl)-4-methoxybenzo[d]isoxazol-3-yl)-1-cyclohexylmethanesulfonamide], not above 10 µM. As to `C#CC(=O)NCc1cnn(Cc2cc(OC)c3c(NS(=O)(=O)c4c(OC)cccc4OC)noc3c2)c1` [Synthetic Example 34, N-((1-((3-((2,6-dimethoxyphenyl)sulfonamido)-4-methoxybenzo[d]isoxazol-6-yl)methyl)-1H-pyrazol-4-yl)methyl)propiolamide], under setting [2], the IC50 is not above 10 µM. With `C#CC(=O)NCc1cnn(Cc2cc(OC)c3c(NS(=O)(=O)c4cccc(OC)c4)noc3c2)c1` [Synthetic Example 35, N-((1-((4-methoxy-3-((3-methoxyphenyl)sulfonamido)benzo[d]isoxazol-6-yl)methyl)-1H-pyrazol-4-yl)methyl)propiolamide], the half-maximal inhibitory concentration (IC50) under setting [2] was not above 10 µM. For the compound `C#CC(=O)NCc1cnn(Cc2cc(OC)c3c(NS(=O)(=O)c4ccc(C(=O)OC)cc4)noc3c2)c1` [Synthetic Example 38, methyl 4-(N-(4-methoxy-6-((4-(propiolamidomethyl)-1H-pyrazol-1-yl)methyl)benzo[d]isoxazol-3-yl)sulfamoyl)benzoate], the IC50 under setting [2] is not above 10 µM. With `C=CC(=O)NCC(=O)NCc1ccc2cc(C(=O)NS(=O)(=O)c3ccccc3F)oc2c1` [Synthetic Example 39, 6-((2-acrylamidoacetamido)methyl)-N-((2-fluorophenyl)sulfonyl)benzofuran-2-carboxamide], under setting [3], the IC50 lay in the range of 20 to 50 µM. Take `C=CC(=O)N1CCC(C(=O)NCc2ccc3cc(C(=O)NS(=O)(=O)c4ccccc4F)oc3c2)C1` (centres unmarked) [Synthetic Example 40, 1-acryloyl-N-((2-(((2-fluorophenyl)sulfonyl)carbamoyl)benzofuran-6-yl)methyl)pyrrolidine-3-carboxamide]: the IC50 under setting [3] is more than 100 µM.
